# From patent US10376486B2, “Compositions and methods for reactivating latent viral infections” (priority 2014, dated 2019)
# Key:
# latent HIV in U1 cells = test: HIV transcription in U1 cells (RT-qPCR); format: cell-based; conditions: 6 nM PEP005, 2 μM JQ1, 24 h
# Experimental: FIG. 2: PEP005 synergizes with other latency reversing agents in reactivating latent HIV. (A) J-Lat A1 cells were treated with 5 ng/ml PMA, 6 nM PEP005, 500 nM SAHA, 2 μM JQ1, 2 μM GSK343, or 10 μM Prostratin alone or in combination with 6 nM PEP005 for 24 hours and the percentage of GFP expressing cells was determined using flow cytometry. **, p<0.01; *, p<0.05 compared with control treatment; **, p<0.01; *, p<0.05 compared with PEP005 treatment alone. (B) The U1 cells were treated with 5 ng/ml PMA, 6 nM PEP005, 500 nM SAHA, 2 μM JQ1, or 2 μM GSK343, alone or in combination with 6 nM PEP005 for 24 hours and the HIV transcription was evaluated using RT-qPCR. […] Statistical significance was determined using a one tailed ratio t-test comparing predicted and observed drug combination effects. *p<0.05; **p<0.01.
# J-Lat A1 cells (harboring a single copy of latent HIV LTR and one copy of green fluorescent protein gene under the HIV LTR control) or U1 cells (harboring two latent HIV genomes with defective Tat gene) were cultured in RPMI1640 medium with 10% fetal bovine serum (FBS) and 1% Pen/strep in a 37° C. incubator containing 5% CO2 [24,31]. […] HIV reactivation was quantified by GFP expression using flow cytometry and the data were analyzed using FlowJo Software for J-Lat A1 cells, or by quantitative RT-PCR (RT-qPCR) for J-Lat A1 and U1 cells. […]
# CD4, CCR5 and CXCR4 = test: Expression of HIV receptors/co-receptors in primary CD4+ T cells (RT-qPCR); format: cell-based, human; conditions: primary CD4+ T cells of healthy HIV-negative donors, 12 nM PEP005, 72 hours
# Experimental: FIG. 12: PEP005 down-modulates the expression of CD4, CCR5 and CXCR4 and inhibits HIV infection of primary CD4+ T cells ex vivo. (A) PEP005 inhibits expression of HIV receptors/co-receptors. […] The expression of CD4, CCR5 and CXCR4 genes was evaluated using RT-qPCR after normalizing for GAPDH. (B) and (C) PEP005 inhibits HIV infection of primary CD4+ T cells ex vivo. Primary CD4+ T cells were pre-treated with 12 or 24 nM PEP005 overnight and infected with the virus. The CD4+ T cells were incubated for 5 days without PEP005. The cells were collected for RT-qPCR targeting the HIV LTR region (B), or supernatants were collected for p24 ELISA (C). *, p<0.05; **, p<0.01.
# Recent studies have shown that Prostratin and analogs down-modulate HIV receptor/co-receptor expression, which could have protective effects against the viral infection. Conversely, SAHA, known to induce latent HIV expression in HIV infected individuals receiving ART, was reported to increase susceptibility of naive CD4+ T cells to HIV acquisition. […] Primary CD4+ T cells from peripheral blood samples of healthy HIV-negative donors were treated with 12 nM PEP005 and evaluated for the expression levels of CD4, CCR5, and CCXR4 using RT-qPCR. […] The virological outcome in the CD4+ T cell cultures in vitro was monitored for 5 days.
# [1] = systemic (intravenous), mini pig and rat model; cited from earlier work
# [2] = PBMCs of healthy HIV-negative donors, 12 nM PEP005, 24 or 72 hours
# [3] = purified primary CD4+ T cells, 12 nM PEP005, 24 hrs
smiles,measurement,setting,value
"C/C=C(/C)C(=O)O[C@H]1C(C)=C[C@]23C(=O)[C@@H](C=C(CO)[C@@H](O)[C@]12O)[C@H]1[C@@H](C[C@H]3C)C1(C)C [PEP005, (1aR,2S,5R,5aS,6S,8aS,9R,10aR)-5,5a-Dihydroxy-4-(hydroxymethyl)-1,1,7,9-tetramethyl-11-oxo-1a,2,5,5a,6,9,10,10a-octahydro-1H-2,8a-methanocyclopenta[a]cyclpropa[e][10]annulen-6-yl (2Z)-2-methylbut-2-enoate]",increase in latent HIV reactivation / HIV transcription compared to controls,latent HIV in U1 cells,about 25 fold
same,"expression of CD4, CCR5, and CXCR4","CD4, CCR5 and CXCR4",significant reduction
same,expression of CD38 (24 hr) and HLA-DR by flow cytometry,primary CD4+ T cells; [2],no significant change
same,expression of CD69 by flow cytometry,primary CD4+ T cells; [2],increase in expression of CD69
same,"expression of CD38, CD25, or HLA-DR by RT-qPCR",primary CD4+ T cells; [3],did not cause any significant change
same,expression of CD69 by RT-qPCR,primary CD4+ T cells; [3],increased expression of CD69
same,maximum nonlethal dose,[1],> 0.073 mg/kg
